The test system of one series is HSV-1. Description: Virucidal assay: HSV-1 incubated with product, then added to Vero cells, MTT readout. Type of series: cell-based. Particulars: 3 µg/mL. The procedure:
(§1) The product was evaluated for its effective concentration against the virus without causing toxicity to the tested cells. The virus (HSV-1) was added to different dilutions of the product and incubated for 1 hour at 37°C. Then, the solution was diluted (1:10) and added to Vero cells (ATCC CCL-81) for incubation for 72 hours at 37°C and 5% CO2. Positive control (virus without treatment with the inclusion compounds) and negative control (cells without virus and without treatment) were used, under the same conditions, in all tests. The results were evaluated by MTT (Mosmann, 1983; Sieuwerts et al., 1995). The assays were carried out in a NB-2 laboratory (Biosafety Level 2) following Good Laboratory Practices (GLP) and in accordance with the recommendations of ANVISA (Art. 1 and Art. 3 of IN 04/13 and IN 12/16).

Series [1] can be described thus: Cytotoxicity in Vero cells (MTT). Type of series: cell-based. Particulars: monkey. As for the experimental part: as §1
For series [2] the following is noted: cited from earlier work.

Structures can show the parent of a compound that is named as a salt.

On to `N=C(NCCCCCCNC(=N)NC(=N)Nc1ccc(Cl)cc1)NC(=N)Nc1ccc(Cl)cc1` [digluconate salt of chlorhexidine], for which, in the series on HSV-1, the “inactivation of HSV-1” value was “unable to inactivate HSV-1”. The CC50 (as a rule, the concentration at which the toxic effect on the cells reaches its halfway point) at 72 h in series [1] was over 3 µg/mL.

Turning to `Nc1nc2c(ncn2COCCO)c(=O)[nH]1` [Acyclovir], the plasma protein binding entry in series [2] is reported as “less than 20%”.
